Measured values as given in patent US20130022612A1, “METHODS AND COMPOSITIONS FOR MALARIA PROPHYLAXIS” (priority 2004, published 2013).

Key:
P. yoelii sporozoites = details: preincubated with 10 mM E-64
Procedure: Lab-Tek glass slides (model 177402, Nalgene Nunc Corp., Naperville, Il.) were coated with […] of mAb 3D11 (P. berghei) or mAbs 2F6 and NYS1 (P. yoelii) and sporozoites pre-incubated with DMEM/BSA alone or supplemented with 10 mM E-64 or CD for two hours at 28° C. were added in the continued presence of the inhibitor for one hour at 37° C. in a humidified chamber with 5% CO2. The slides were then fixed with 4% paraformaldehyde, incubated with 1:100 dilution of either biotinylated mAb 3D11 (P. berghei) or biotinylated mAb NYS1 (P. yoelii) followed by streptavidin-FITC.

[1] = tested on: CSP processing in P. falciparum sporozoites; test: Pulse-chase metabolic labeling of CSP processing, P. falciparum sporozoites; type: cell-based, Plasmodium falciparum; details: ninety minute chase
Procedure: P. berghei sporozoites were incubated in Dulbecco's Modified Eagle Medium (DMEM; Invitrogen, Carlsbad, Calif.) without cysteine (Cys) and methionine (Met), containing 1% BSA and […] L-[35 S]-Cys/Met (Pro-Mix, Amersham Pharmacia) in a total volume of 200 μl for one hour at 28° C. They were then washed and resuspended in DMEM/BSA containing unlabeled Cys/Met at 28° C. for the indicated time in the presence or absence of the indicated protease inhibitor. Sporozoites were then lysed and CSP was immunoprecipitated and analyzed by autoradiography as outlined below.
For experiments with P. falciparum, a 10% SDS-polyacrylamide gel was used. Gels were fixed in 25% methanol/12% acetic acid, enhanced with Amplify (Amersham Pharmacia) for 30 minutes, dried, and exposed to film.
P. berghei sporozoites were metabolically labeled in DMEM without Cys/Met, 1% BSA and 400 μCi/ml L-[^355]-Cys/Met for 1 hour at 28° C. and then kept on ice or chased at 28° C. for the indicated times. Details of this procedure are outlined in (Coppi et al., 2005). To investigate the kinetics of processing in the presence of hepatocytes, sporozoites were labeled as above, chased at 28° C. for 1 hour and then centrifuged (300×g) onto glass coverslips with Hepa 1-6 cells and incubated at 37° C. for 5, 15 or 30 minutes. […]

[2] = tested on: sporozoite migration through cells; details: 10 mM E-64, rhodamine-dextran positive cells
Procedure: Migration assays were performed as previously described (Mota, M., et al.). Sporozoites were pre-incubated±10 mM E-64 for two hours at 28° C. and added to monolayers of Hepa 1-6 cells in the continued presence of inhibitor with 1 mg/ml rhodamine-dextran, 10,000 MW (Molecular Probes). After one hour at 37° C., the cells were washed, fixed and the number of rhodamine-positive cells in each field was counted.

[3] = tested on: CSP cleavage in P. berghei sporozoites; test: Cell contact assay (CSP cleavage on contact with hepatocytes); type: cell-based, Plasmodium berghei; details: experiment 1, no cells, visualized with α-N
Procedure: Hepa 1-6 cells were seeded on glass coverslips at a density of 2×10^5 cells per coverslip and grown until confluent. P. berghei sporozoites were incubated in DMEM±10 mM E-64 at 4° C. for two hours. Thirty minutes before sporozoites were added to coverslips, Cytochalasin D (CD) was added to all samples (final concentration, […]). Sporozoites were centrifuged onto coverslips (1250×g) for five minutes at 4° C. Coverslips were then brought to 37° C. for two minutes, fixed with 4% paraformaldehyde and stained with either mAb 3D11 followed by anti-mouse Ig FITC or the N-terminal antiserum (1:100) followed by anti-rabbit Ig FITC. […] As a control, sporozoites were spun onto coverslips without cells using the protocol outlined above.

P. berghei sporozoites [4] = details: in the presence of E-64
Procedure: Hepa 1-6 cells were plated in 96-well tissue culture-treated plates, allowed to grow until semi-confluent, washed with DMEM without phenol red, loaded with 10 μM calcein green AM for 1 hour at 37° C. and washed 3 times. 5×10^5 sporozoites in culture medium were centrifuged onto the calcein-loaded cells, incubated for 1 hour at 37° C. and supernatants containing the released calcein were transferred to a ThermoElectron Microfluor 96-well plate. Fluorescence was read in a Labsystems Fluoroscan II using excitation and emission wavelengths of 485 nm and 538 nm, respectively. Further details are outlined in (Coppi et al., 2007).

P. berghei sporozoites [5] = test: Propidium iodide toxicity assay on sporozoites; type: cell-based, Plasmodium berghei; details: for toxicity to sporozoites (propidium iodide): ten minutes
Procedure: When sporozoites were incubated with specific inhibitors, their concentrations were as follows: 10 […] E-64; 1 mM phenylmethylsulfonyl fluoride (PMSF); 0.3 mM aprotinin; 100 mM 3,4 DCl; 75 mM leupeptin; 100 mM TLCK; 1 mM pepstatin; 1 mM 1,10 phenanthroline; 5 mM EDTA; 0.5% sodium azide. To check for toxicity by propidium iodide (PI) staining, P. berghei sporozoites were incubated in the presence or absence of the various protease inhibitors for two hours at 28° C., PI was then added to a final concentration of […] for five minutes at 28° C. The sporozoites were washed and viewed under a fluorescent microscope.
P. berghei sporozoites were incubated with the indicated concentrations of allicin for ten or sixty minutes at 28° C., washed with DMEM, and then incubated with 1 μg/ml propidium iodide for five minutes at 25° C. The number of fluorescent sporozoites in each sample was counted using a Nikon Eclipse E600 microscope. Control samples consisted of sporozoites that were incubated for sixty minutes at 28° C. in DMEM without allicin and sporozoites that were heat killed at 65° C. for ten minutes.

[6] = Brodnitz, M. H., et al.; cited from earlier work

SMILES | percentage of sporozoites that exhibited gliding motility (P. yoelii sporozoites) | effect on CSP processing [1] | sporozoite migration through cells [2] | percentage staining with the N-terminal antiserum [3] | increase in migratory activity (P. berghei sporozoites [4]) [fold] | number of fluorescent (propidium iodide) sporozoites (P. berghei sporozoites [5]; 50 μM allicin 10 minutes, then 4.2 μM for 50 minutes) | increase in number of sporozoites taking up propidium iodide (P. berghei sporozoites [5]; 50 μM allicin, one hour) [fold] | toxicity to sporozoites (propidium iodide) (P. berghei sporozoites [5]; 50 μM allicin) | percentage of sporozoites that took up propidium iodide (P. berghei sporozoites [5]; 1 or 10 μM allicin for up to one hour) | toxicity to sporozoites (propidium iodide) (P. berghei sporozoites [5]; allicin concentrations higher than 50 μM) | stability in vivo [6]
CC(C)C[C@H](NC(=O)[C@H]1O[C@@H]1C(=O)O)C(=O)NCCCCN=C(N)N (relative stereo) [E-64, L-trans-epoxysuccinyl-leucylamide-[4-guanido]-butane] | no effect | inhibited CSP processing | did not inhibit sporozoite migration through cells | 90% ± 4.1 | 4 to 5 |  |  |  |  |  | 
C=CCS[S+]([O-])CC=C (centres unmarked) [allicin] |  |  |  |  |  | did not increase the number of fluorescent sporozoites compared to the untreated control | 1.5 | did not kill sporozoites | no different from the untreated control | toxic to the sporozoites even after only ten minutes of exposure | rapid decomposition in vivo
